pEC50: −log10 of the molar value.
Experiments:
human TRPM8 = biological target: T1, human TRPM8 (Homo sapiens, UniProt Q7Z2W7); assay: Evaluation of human TRPM8 activity (cool-feeling intensity), calcium fluorescence in stable expression cells; assay type: cell-based; conditions: Fluo4-AM, 32° C., read-out: EC50 value in TRPM8 activation action
T1 construct: The full-length human TRPM8 gene was amplified from plasmid RC220615 (manufactured by Origene) using a PCR method; host or cells: Flp-In T-REx 293 cells ('Flp-In293293 cells' [sic]), pcDNA5/FRT/TO, doxycycline-induced
Experimental: It is common that a compound having a cooling effect such as menthol generally induces a cool-feeling by activating melastatin transient receptor potential channel 8 (TRPM8) as a cold stimulation receptor (for example, see J. Neurobiol. (2004), Vol. 61, PP. 3-12). Therefore, in order to evaluate the cool-feeling intensity, EC50 values of the exemplary compounds obtained in the Examples in TRPM8 activation actions were evaluated according to the following procedures.
The full-length human TRPM8 gene was amplified from plasmid RC220615 (manufactured by Origene) using a PCR method. The obtained PCR product was subcloned into pcDNA5/FRT/TO (manufactured by Thermo Fisher Scientific K.K.), and then it was introduced into Flp-In293293 cells (manufactured by Thermo Fisher Scientific K.K.) by using a Flp-InT-REx system (manufactured by Thermo Fisher Scientific K.K.), so that a human TRPM8 stable expression cell line was prepared.
The cultured human TRPM8 stable expression cells were seeded at a ratio of 50,000 cells/well to a poly-D-lysine-coated 96-well microplate (manufactured by Corning Incorporated), 1 μg/mL of doxycycline (manufactured by Takara Bio Inc.) was added thereto, and then the seeded cells were cultured at 37° C. for one night, so that the expression of the human TRPM8 was induced.
The culture solution was replaced with a buffer solution, and then, a fluorescent calcium indicator (Fluo4-AM: manufactured by Dojindo) was added thereto, the cells were incubated at 37° C. for 30 minutes, and they were transferred to a fluorescent microplate reader (FlexStation3: Molecular Devices, LLC.). Exemplary compounds were added in a final concentration range of 0.1 μM to 1000 μM, and the changes in fluorescence having a wavelength of 525 nm when excited at a wavelength of 485 nm were measured at a device temperature of 32° C., so as to calculate EC50 values.

[1] = Sensory evaluation of 30 ppm aqueous solution by three flavorists; assay type: in vivo, human; conditions: for intensity of cool-feeling: mouth rinsed and spat out; for intensity of cool-feeling compared with comparative compounds: 30 ppm aqueous solutions
Experimental: The sensory evaluation was performed by comparing the exemplary compound (1-1) with the so far known comparative compounds 1 to 4. Comparative compounds 1, 3, and 4 were synthesized according to the method described in WO 2016/153011 A1, and comparative compound 2 was synthesized according to the method described in WO 2005/020897 A1. The exemplary compound (1-1) and comparative compounds 1 to 4 were separately prepared into a 30 ppm aqueous solution, and the aqueous solution was used to perform the evaluation.
The evaluation was performed by three flavorists. The aqueous solution was taken into the mouth and spat out after the mouth was rinsed, and intensity, persistence, and quality of a cool-feeling in the oral cavity were evaluated.
A 30 ppm aqueous solution of the exemplary compound (1-2) was prepared and used to perform the evaluation.
A 30 ppm aqueous solution of the exemplary compound (1-3) was prepared and used to perform the evaluation.
A 30 ppm aqueous solution of the exemplary compound (1-5) was prepared and used to perform the evaluation.

T1 sequence (Q7Z2W7 whole entry): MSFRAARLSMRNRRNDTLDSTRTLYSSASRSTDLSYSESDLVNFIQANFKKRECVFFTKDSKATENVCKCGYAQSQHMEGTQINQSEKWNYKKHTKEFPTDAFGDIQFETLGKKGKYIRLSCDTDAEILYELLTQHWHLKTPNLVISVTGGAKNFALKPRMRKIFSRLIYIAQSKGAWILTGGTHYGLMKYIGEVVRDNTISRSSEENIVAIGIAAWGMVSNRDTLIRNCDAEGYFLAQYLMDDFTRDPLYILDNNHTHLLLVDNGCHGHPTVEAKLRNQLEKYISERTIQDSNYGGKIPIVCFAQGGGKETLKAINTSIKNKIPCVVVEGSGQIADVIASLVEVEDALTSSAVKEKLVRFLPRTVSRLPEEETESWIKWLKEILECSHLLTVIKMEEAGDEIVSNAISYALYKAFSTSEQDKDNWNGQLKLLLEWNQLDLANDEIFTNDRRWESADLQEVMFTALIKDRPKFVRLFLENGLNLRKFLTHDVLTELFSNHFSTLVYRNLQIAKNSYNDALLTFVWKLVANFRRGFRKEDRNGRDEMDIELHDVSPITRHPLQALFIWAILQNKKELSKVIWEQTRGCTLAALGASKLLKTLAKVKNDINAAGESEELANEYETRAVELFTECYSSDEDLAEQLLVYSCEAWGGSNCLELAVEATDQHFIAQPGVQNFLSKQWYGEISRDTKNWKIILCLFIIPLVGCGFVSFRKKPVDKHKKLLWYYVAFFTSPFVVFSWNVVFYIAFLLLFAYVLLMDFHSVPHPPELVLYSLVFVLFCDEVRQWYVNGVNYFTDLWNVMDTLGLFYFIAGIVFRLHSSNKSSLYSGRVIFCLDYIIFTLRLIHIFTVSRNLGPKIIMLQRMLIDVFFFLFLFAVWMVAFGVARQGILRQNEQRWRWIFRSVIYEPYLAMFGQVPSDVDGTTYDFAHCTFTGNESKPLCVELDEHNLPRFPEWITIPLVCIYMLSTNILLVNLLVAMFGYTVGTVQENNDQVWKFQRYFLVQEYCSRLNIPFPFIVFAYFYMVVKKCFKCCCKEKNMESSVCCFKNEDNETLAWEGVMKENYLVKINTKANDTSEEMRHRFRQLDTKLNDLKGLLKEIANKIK

melting point | pEC50 (human TRPM8) | SMILES | also measured
90 to 93 °C | – | CC(C)C1CCC(C)(C)CC1C(=O)NCCc1ccccc1 (stereo not shown) [Exemplary Compound 1-13, 2-isopropyl-5,5-dimethyl-N-phenylethyl cyclohexane carboxamide] | –
– | 7.30 | CC(C)C1CCC(C)(C)CC1C(=O)NCCc1ccccc1 (stereo not shown) [1-13] | –
– | 6.26 | CC(C)C1CCC(C)(C)CC1C(=O)NC[C@@H](C)c1ccccc1 (stereo partly shown) [1-7] | –
85 to 88 °C | – | CC(C)C1CCC(C)(C)CC1C(=O)NCC(=O)c1ccccc1 (stereo not shown) [Exemplary Compound 1-5, 2-isopropyl-5,5-dimethyl-N-(2-oxo-2-phenylethyl) cyclohexane carboxamide] | persistence: cool-feeling lasted for ([1]; 30 ppm aqueous solution): ≥ 60 min; start of the cool-feeling ([1]; 30 ppm aqueous solution): gradually felt strongly; intensity of cool-feeling ([1]; 30 ppm aqueous solution): very strongly at the peak time
86 to 88 °C | – | COc1ccc(CCNC(=O)C2CC(C)(C)CCC2C(C)C)cc1 (stereo not shown) [Exemplary Compound 1-10, 2-isopropyl-N-(4-methoxyphenylethyl)-5,5-dimethyl cyclohexane carboxamide] | –
– | 7.13 | CC(C)C1CCC(C)(C)CC1C(=O)NC[C@H](O)c1ccccc1 (stereo partly shown) [1-3] | –
– | 6.27 | CC(=O)OC(CNC(=O)C1CC(C)(C)CCC1C(C)C)c1ccccc1 (stereo not shown) [1-4] | –
– | – | CC(C)[C@@H]1CC[C@@H](C)CC1C(=O)NCC(O)c1ccccc1 (stereo partly shown) [Comparative compound 2, reference compound] | persistence of cool-feeling ([1]; 30 ppm aqueous solution): persistent; intensity of cool-feeling ([1]; 30 ppm aqueous solution): very strong; intensity of cool-feeling compared with comparative compounds [1]: same cooling intensity and persistence as those of the exemplary compound (1-1)
– | 6.41 | CC(CNC(=O)C1CC(C)(C)CCC1C(C)C)c1ccccc1 (stereo not shown) [1-6] | –
– | 7.39 | CC(C)C1CCC(C)(C)CC1C(=O)NCC(O)c1ccccc1 (stereo not shown) [1-1] | –
– | 6.95 | CC(C)C1CCC(C)(C)CC1C(=O)NCCc1ccc(O)c(O)c1 (stereo not shown) [1-11] | –
80 to 85 °C | – | CC(CNC(=O)C1CC(C)(C)CCC1C(C)C)c1ccccc1 (stereo not shown) [Exemplary Compound 1-6, 2-isopropyl-5,5-dimethyl-N-(2-phenylpropyl) cyclohexane carboxamide] | –
– | – | CC(C)C1CCC(C)(C)CC1C(=O)NC[C@H](O)c1ccccc1 (stereo partly drawn) [Exemplary Compound 1-3, N—((R)-2-hydroxy-2-phenylethyl)-2-isopropyl-5,5-dimethyl cyclohexane carboxamide] | persistence: cool-feeling lasted for ([1]; 30 ppm aqueous solution): ≥ 60 min; start of the cool-feeling ([1]; 30 ppm aqueous solution): strong cool-feeling was felt when the exemplary compound (1-3) was put in the mouth; intensity of cool-feeling ([1]; 30 ppm aqueous solution): very strong
127 to 134 °C | – | CC(C)C1CCC(C)(C)CC1C(=O)NC[C@H](C)c1ccccc1 (stereo partly drawn) [Exemplary Compound 1-8, 2-isopropyl-5,5-dimethyl-N—((R)-2-phenylpropyl) cyclohexane carboxamide] | –
125 to 133 °C | – | CC(C)C1CCC(C)(C)CC1C(=O)NC[C@@H](C)c1ccccc1 (stereo partly drawn) [Exemplary Compound 1-7, 2-isopropyl-5,5-dimethyl-N—((S)-2-phenylpropyl) cyclohexane carboxamide] | –
183 to 190 °C | – | CC(C)C1CCC(C)(C)CC1C(=O)NCCc1ccc(O)cc1 (stereo not shown) [Exemplary Compound 1-9, N-(4-hydroxyphenylethyl)-2-isopropyl-5,5-dimethyl cyclohexane carboxamide] | –
– | – | CC(C)C1CCC(C)(C)CC1C(=O)NC[C@@H](O)c1ccccc1 (stereo partly drawn) [Exemplary Compound 1-2, N—((S)-2-hydroxy-2-phenylethyl)-2-isopropyl-5,5-dimethyl cyclohexane carboxamide] | persistence: cool-feeling lasted for ([1]; 30 ppm aqueous solution): ≥ 90 min; start of the cool-feeling ([1]; 30 ppm aqueous solution): strong cool-feeling was felt when the exemplary compound (1-2) was put in the mouth; intensity of cool-feeling ([1]; 30 ppm aqueous solution): very strong
– | 6.83 | CC(C)C1CCC(C)(C)CC1C(=O)NCC(=O)c1ccccc1 (stereo not shown) [1-5] | –
– | 6.80 | COc1ccc(CCNC(=O)C2CC(C)(C)CCC2C(C)C)cc1 (stereo not shown) [1-10] | –
– | 7.62 | CC(C)C1CCC(C)(C)CC1C(=O)NC[C@@H](O)c1ccccc1 (stereo partly shown) [1-2] | –
– | 6.21 | CC(C)C1CCC(C)(C)CC1C(=O)NC[C@H](C)c1ccccc1 (stereo partly shown) [1-8] | –
85 to 89 °C | – | COc1ccc(CCNC(=O)C2CC(C)(C)CCC2C(C)C)cc1OC (stereo not shown) [Exemplary Compound 1-12, N-(3,4-dimethoxyphenylethyl)-2-isopropyl-5,5-dimethyl cyclohexane carboxamide] | –
– | 7.53 | CC(C)C1CCC(C)(C)CC1C(=O)NCCc1ccc(O)cc1 (stereo not shown) [1-9] | –
– | 6.39 | COc1ccc(CCNC(=O)C2CC(C)(C)CCC2C(C)C)cc1OC (stereo not shown) [1-12] | –
– | – | CC(C)C1CCC(C)(C)CC1C(=O)NCC(O)c1ccccc1 (stereo not shown) [Exemplary Compound 1-1, N-(2-hydroxy-2-phenylethyl)-2-isopropyl-5,5-dimethyl cyclohexane carboxamide] | persistence: cool-feeling lasted for ([1]; 30 ppm aqueous solution): ≥ 60 min; start of the cool-feeling ([1]; 30 ppm aqueous solution): clearly faster than the comparative compounds 1 to 4; intensity of cool-feeling ([1]; 30 ppm aqueous solution): very strong; intensity of cool-feeling compared with comparative compounds [1]: clearly stronger than those of the comparative compounds 3 and 4

— patent publication US11236042B2, “Methylmenthol derivative and cool-sensation imparter composition containing same” (TAKASAGO INTERNATIONAL CORPORATION, priority 2017, dated 2022)
